*1 amine or outer side, *2 acyl side, *3 side chain or, on linkers, in order; H or OH if unused. Where a SMILES comes first, the peptide text is derived from it. Side-chain parts run from the residue outwards. The star is where a group is joined. C18 diacid = O=C(O)CCCCCCCCCCCCCCCCC(=O)*; γGlu = O=C(O)[C@H](CCC(=O)[*:2])N[*:1]; Isovaleryl = CC(C)CC(=O)*; AEEA = NCCOCCOCC(=O)O
What follows are compounds tested against T1, Human Neuropeptide Y2 Receptor (Homo sapiens, UniProt P49146) (assay: Radioligand binding competition assay (RLB)). Details: Table 3; human 125I-PYY (1-36) 0.02 nM, Y2 receptor membranes; read-out: Ki.
T1 construct: purchased CHEMICON HTS066M
T1 sequence (P49146 1-381): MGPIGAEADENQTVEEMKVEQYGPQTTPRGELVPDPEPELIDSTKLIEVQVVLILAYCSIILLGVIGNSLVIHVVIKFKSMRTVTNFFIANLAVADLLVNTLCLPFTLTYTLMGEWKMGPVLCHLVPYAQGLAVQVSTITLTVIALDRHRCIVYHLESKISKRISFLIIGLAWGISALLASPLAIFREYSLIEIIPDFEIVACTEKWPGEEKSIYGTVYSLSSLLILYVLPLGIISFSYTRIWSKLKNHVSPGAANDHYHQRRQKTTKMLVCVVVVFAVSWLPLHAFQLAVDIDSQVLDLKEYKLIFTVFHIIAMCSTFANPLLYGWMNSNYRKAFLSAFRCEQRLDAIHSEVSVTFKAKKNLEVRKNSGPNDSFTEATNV
Method in brief: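 Competition binding on human Y2 receptor membranes, 0.5 μg protein/well, in 50 mM HEPES, 5 mM MgCl2, 1 mM CaCl2, pH 7.4, 0.2% ovalbumin; peptides diluted from 1 mM DMSO stocks.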

Row | SMILES | Ki
1 | CC(C)CC(=O)N[C@@H](C)C(=O)N1CCC[C@H]1C(=O)N[C@@H](CCC(=O)O)C(=O)N[C@@H](CCCCNC(=O)COCCOCCNC(=O)COCCOCCNC(=O)CC[C@H](NC(=O)CCCCCCCCCCCCCCCCC(=O)O)C(=O)O)C(=O)N1CCC[C@H]1C(=O)N[C@@H](CCC(=O)O)C(=O)N[C@@H](CCC(=O)O)C(=O)N[C@@H](CCC(=O)O)C(=O)N[C@@H](C)C(=O)N[C@@H](CO)C(=O)N1CCC[C@H]1C(=O)N[C@@H](CCC(=O)O)C(=O)N[C@@H](CCC(=O)O)C(=O)N[C@@H](CC(C)C)C(=O)N[C@@H](CCC(N)=O)C(=O)N[C@@H](CCCNC(=N)N)C(=O)N[C@@H](Cc1ccc(O)cc1)C(=O)N[C@@H](Cc1ccc(O)cc1)C(=O)N[C@H](C(=O)N[C@@H](CO)C(=O)N[C@H](C(=O)N[C@@H](CCCNC(=N)N)C(=O)N[C@@H](Cc1c[nH]cn1)C(=O)N[C@@H](Cc1ccc(O)cc1)C(=O)N[C@@H](Cc1ccc(O)cc1)C(=O)N[C@@H](CC(N)=O)C(=O)N[C@@H](Cc1c[nH]c2ccccc12)C(=O)N[C@@H](CC(C)C)C(=O)N[C@H](C(=O)N[C@@H](CCCNC(=N)N)C(=O)N[C@@H](CCC(N)=O)C(=O)N[C@@H](CCCNC(=N)N)C(=O)N[C@@H](Cc1ccc(O)cc1)C(N)=O)[C@@H](C)O)[C@@H](C)O)C(C)C [Compound 146, N{alpha-4}-(3-methylbutanoyl)-N{epsilon-7}-[2-(2-{2-[2-(2-{2-[(4S)-4-carboxy-4-(17-carboxyheptadecanamido)butanamido]ethoxy}ethoxy)acetamido]ethoxy}ethoxy)acetamido]-[4A,7K,9E,11E,18Q,22V,24T,28Y,30W,31L]hPYY (4-36)] (Isovaleryl-APEK([AEEA-AEEA-γGlu-C18 diacid])PEEEASPEELQRYYVSTRHYYNWLTRQRY-NH2) | 5.05 nM
2 | CC(C)CC(=O)N[C@@H](C)C(=O)N1CCC[C@H]1C(=O)N[C@@H](CCC(=O)O)C(=O)N[C@@H](CCCCNC(=O)COCCOCCNC(=O)COCCOCCNC(=O)CC[C@H](NC(=O)CCCCCCCCCCCCCCCCC(=O)O)C(=O)O)C(=O)N1CCC[C@H]1C(=O)N[C@@H](CCC(=O)O)C(=O)N[C@@H](CCC(=O)O)C(=O)N[C@@H](CC(=O)O)C(=O)N[C@@H](C)C(=O)N[C@@H](CO)C(=O)N1CCC[C@H]1C(=O)N[C@@H](CCC(=O)O)C(=O)N[C@@H](CCC(=O)O)C(=O)N[C@H](C(=O)N[C@@H](CCC(N)=O)C(=O)N[C@@H](CCCCN)C(=O)N[C@@H](Cc1ccc(O)cc1)C(=O)N[C@@H](Cc1ccc(O)cc1)C(=O)N[C@H](C(=O)N[C@@H](CO)C(=O)N[C@@H](CC(C)C)C(=O)N[C@@H](CCCNC(=N)N)C(=O)N[C@@H](Cc1c[nH]cn1)C(=O)N[C@@H](Cc1ccc(O)cc1)C(=O)N[C@@H](Cc1ccc(O)cc1)C(=O)N[C@@H](CC(N)=O)C(=O)N[C@@H](Cc1c[nH]c2ccccc12)C(=O)N[C@@H](CC(C)C)C(=O)N[C@H](C(=O)N[C@@H](CCCNC(=N)N)C(=O)N[C@@H](CCC(N)=O)C(=O)N[C@@H](CCCNC(=N)N)C(=O)N[C@@H](Cc1ccc(O)cc1)C(N)=O)[C@@H](C)O)C(C)C)[C@@H](C)O [Compound 147, N{alpha-4}-(3-methylbutanoyl)-N{epsilon-7}-[2-(2-{2-[2-(2-{2-[(4S)-4-carboxy-4-(17-carboxyheptadecanamido)butanamido]ethoxy}ethoxy)acetamido]ethoxy}ethoxy)acetamido]-[4A,7K,9E,17T,18Q,19K,22V,28Y,30W,31L]hPYY (4-36)] | 1.19 nM

Next, values leading:

Row | Ki | SMILES
3 | 2.75 nM | CC(C)CC(=O)N[C@@H](C)C(=O)N1CCC[C@H]1C(=O)N[C@@H](CCC(=O)O)C(=O)N[C@@H](CCCCNC(=O)COCCOCCNC(=O)COCCOCCNC(=O)CC[C@H](NC(=O)CCCCCCCCCCCCCCCCC(=O)O)C(=O)O)C(=O)N1CCC[C@H]1C(=O)N[C@@H](CCC(=O)O)C(=O)N[C@@H](CCC(=O)O)C(=O)N[C@@H](C)C(=O)N[C@@H](C)C(=O)N[C@@H](CO)C(=O)N1CCC[C@H]1C(=O)N[C@@H](CCC(=O)O)C(=O)N[C@@H](CCC(=O)O)C(=O)N[C@@H](CC(C)C)C(=O)N[C@@H](CCC(N)=O)C(=O)N[C@@H](CCCNC(=N)N)C(=O)N[C@@H](Cc1ccc(O)cc1)C(=O)N[C@@H](Cc1ccc(O)cc1)C(=O)N[C@H](C(=O)N[C@@H](CCC(=O)O)C(=O)N[C@@H](CC(C)C)C(=O)N[C@@H](CCCNC(=N)N)C(=O)N[C@@H](Cc1c[nH]cn1)C(=O)N[C@@H](Cc1ccc(O)cc1)C(=O)N[C@@H](Cc1ccc(O)cc1)C(=O)N[C@@H](CC(N)=O)C(=O)N[C@@H](Cc1c[nH]c2ccccc12)C(=O)N[C@@H](CC(C)C)C(=O)N[C@H](C(=O)N[C@@H](CCCNC(=N)N)C(=O)N[C@@H](CCC(N)=O)C(=O)N[C@@H](CCCNC(=N)N)C(=O)N[C@@H](Cc1ccc(O)cc1)C(N)=O)[C@@H](C)O)C(C)C [Compound 149, N{alpha-4}-(3-methylbutanoyl)-N{epsilon-7}-[2-(2-{2-[2-(2-{2-[(4S)-4-carboxy-4-(17-carboxyheptadecanamido)butanamido]ethoxy}ethoxy)acetamido]ethoxy}ethoxy)acetamido]-[4A,7K,9E,11A,18Q,22V,23E,28Y,30W,31L]hPYY (4-36)]
4 | 5.18 nM | CC[C@H](C)[C@H](NC(=O)[C@H](CCC(=O)O)NC(=O)[C@H](CCC(=O)O)NC(=O)[C@@H]1CCCN1C(=O)[C@H](CO)NC(=O)[C@H](C)NC(=O)[C@H](CC(=O)O)NC(=O)[C@H](CCC(=O)O)NC(=O)[C@H](CCC(=O)O)NC(=O)[C@H](C)NC(=O)[C@H](CCCCNC(=O)COCCOCCNC(=O)COCCOCCNC(=O)CC[C@H](NC(=O)CCCCCCCCCCCCCCCCC(=O)O)C(=O)O)NC(=O)[C@H](CCC(=O)O)NC(=O)[C@@H]1CCCN1C(=O)[C@H](C)NC(=O)CC(C)C)C(=O)N[C@@H](CCC(N)=O)C(=O)N[C@@H](CCCNC(=N)N)C(=O)N[C@@H](Cc1ccc(O)cc1)C(=O)N[C@@H](Cc1ccc(O)cc1)C(=O)N[C@H](C(=O)N[C@@H](CO)C(=O)N[C@@H](CC(C)C)C(=O)N[C@@H](CCCNC(=N)N)C(=O)N[C@@H](Cc1c[nH]cn1)C(=O)N[C@@H](Cc1ccc(O)cc1)C(=O)N[C@@H](Cc1ccc(O)cc1)C(=O)N[C@@H](CC(N)=O)C(=O)N[C@@H](Cc1c[nH]c2ccccc12)C(=O)N[C@@H](CC(C)C)C(=O)N[C@H](C(=O)N[C@@H](CCCNC(=N)N)C(=O)N[C@@H](CCC(N)=O)C(=O)N[C@@H](CCCNC(=N)N)C(=O)N[C@@H](Cc1ccc(O)cc1)C(N)=O)[C@@H](C)O)C(C)C [Compound 152, N{alpha-4}-(3-methylbutanoyl)-N{epsilon-7}-[2-(2-{2-[2-(2-{2-[(4S)-4-carboxy-4-(17-carboxyheptadecanamido)butanamido]ethoxy}ethoxy)acetamido]ethoxy}ethoxy)acetamido]-[4A,7K,8A,9E,17I,18Q,22V,28Y,30W,31L]hPYY (4-36)]
5 | 14.4 nM | CC(C)CC(=O)N[C@@H](C)C(=O)N1CCC[C@H]1C(=O)N[C@@H](CCC(=O)O)C(=O)N[C@@H](CCCCNC(=O)COCCOCCNC(=O)COCCOCCNC(=O)CC[C@H](NC(=O)CCCCCCCCCCCCCCCCC(=O)O)C(=O)O)C(=O)N[C@H](C(=O)N[C@@H](CCC(=O)O)C(=O)N[C@@H](CCC(=O)O)C(=O)N[C@@H](CCC(=O)O)C(=O)N[C@@H](C)C(=O)N[C@@H](CO)C(=O)N1CCC[C@H]1C(=O)N[C@@H](CCC(=O)O)C(=O)N[C@@H](CCC(=O)O)C(=O)N[C@@H](CC(C)C)C(=O)N[C@@H](CCC(N)=O)C(=O)N[C@@H](CCCNC(=N)N)C(=O)N[C@@H](Cc1ccc(O)cc1)C(=O)N[C@@H](Cc1ccc(O)cc1)C(=O)N[C@H](C(=O)N[C@@H](CO)C(=O)N[C@@H](CC(C)C)C(=O)N[C@@H](CCCNC(=N)N)C(=O)N[C@@H](Cc1c[nH]cn1)C(=O)N[C@@H](Cc1ccc(O)cc1)C(=O)N[C@@H](Cc1ccc(O)cc1)C(=O)N[C@@H](CC(N)=O)C(=O)N[C@@H](Cc1c[nH]c2ccccc12)C(=O)N[C@@H](CC(C)C)C(=O)N[C@H](C(=O)N[C@@H](CCCNC(=N)N)C(=O)N[C@@H](CCC(N)=O)C(=O)N[C@@H](CCCNC(=N)N)C(=O)N[C@@H](Cc1ccc(O)cc1)C(N)=O)[C@@H](C)O)C(C)C)C(C)C [Compound 153, N{alpha-4}-(3-methylbutanoyl)-N{epsilon-7}-[2-(2-{2-[2-(2-{2-[(4S)-4-carboxy-4-(17-carboxyheptadecanamido)butanamido]ethoxy}ethoxy)acetamido]ethoxy}ethoxy)acetamido]-[4A,7K,8V,9E,11E,18Q,22V,28Y,30W,31L]hPYY (4-36)] (Isovaleryl-APEK([AEEA-AEEA-γGlu-C18 diacid])VEEEASPEELQRYYVSLRHYYNWLTRQRY-NH2)
